Laboratory results taken from PubChem BioAssay AID2060603 (Molecular Pharmacology Branch, DTP, NCI, 2025).

System: 422866-222-R5-J1-PDC spheroid viability
Assay: Anticancer human tumor 422866-222-R5-J1-PDC patient-derived pancreatic adenocarcinoma cell line growth inhibition [CLK]
Details: spheroids with HUVEC and MSC; for IC50: curve of first compound; for viability, T/C: stronger effect = lower value
Description: A high-throughput screen of multi-cell type tumor spheroids was designed to identify active combinations of […] and targeted small molecules. Complex spheroids include a stromal component modeled by human endothelial cells (HUVEC) and fibroblasts modeled by human mesenchymal stem cells (MSCs). The concentration ranges selected for each drug and investigational agent were based upon clinically achievable concentrations if the clinical Cmax of the agent was known.
Compounds. The drugs and investigational agents: cirtuvivint (SM08502; NSC835563), CC-671 (NSC850746), vemurafenib (NSC761431), tapotoclax (NSC804041), sotorasib (NSC818433), adagrasib (NSC831453), MRTX-1133 (NSC836407), BAY2416964 (NSC825713), copanlisib (NSC816437), inavolisib (NSC800729), abemaciclib (NSC768073), osimertinib (NSC779217), entinostat (NSC756642), eltanexor (KPT-8602, NSC794443), venetoclax (NSC766270), ceralasertib (NSC777638), bortezomib (NSC756655), olaparib (NSC753686), talazoparib (NSC767125), alisertib (NSC759677), peposertib (NSC802822), gemcitabine (NSC613327), 5-fluorouracil (NSC19893), SN-38 (NSC673596), oxaliplatin (NSC266046), paclitaxel (NSC125973), and doxorubicin (NSC123127), were obtained from the National Cancer Institute (NCI) Developmental Therapeutics Program Chemical Repository. The FDA-approved anticancer drug set is available from the Developmental Therapeutics Program at https://dtp.cancer.gov/organization/dscb/obtaining/available plates.htm. […] The stock solutions were prepared in dimethyl sulfoxide (DMSO, Sigma-Aldrich, St. Louis, MO, cat. D2650), except for the platinum complexes which were prepared in saline (Quality Biological, Gaithersburg, MD, cat. 114-055-101), at 800-fold the tested concentration and stored at -70 degrees C prior to their use. All drugs and investigational agents were tested over a range starting from a high concentration at or near the clinical Cmax and decreasing in half-log increments. If the clinical Cmax for an agent had not been determined, the highest concentration tested was 10 microM.
Cell Culture. All cells were maintained in an incubator at 37 degrees C and 5% CO2 with 95% humidity. The PDC lines were cultured according to standard operating procedures established by the NCI PDMR. Briefly, all PDCs were thawed and cultured in Matrigel-coated flasks prepared with a working solution of 1X Ham's F-12 nutrient mix, without supplementation (Invitrogen, Waltham, MA, cat. 11765054), 100 U/mL penicillin-streptomycin (Invitrogen, cat. 15140122), and 2.5% Matrigel (Corning Inc., Corning, NY, cat. 354248) for the first three passages. The 947758-054-R-J2-PDC line was cultured in 6B/Colon 1A media, which includes advanced DMEM/F-12 (Thermo Fisher Scientific, cat. 12634028), 10 mM HEPES (Thermo Fisher Scientific, cat. 15630080), 1X GlutaMAX supplement (Thermo Fisher Scientific, cat. 35050061), 0.1 mg/mL primocin (InvivoGen, cat. ant-pm-2), 10% defined fetal bovine serum, heat inactivated (HyClone Laboratories Inc., cat. SH30070.03HI), 1.25 mM N-Acetyl-L-cysteine (Sigma-Aldrich, cat. A9165), 10 mM nicotinamide (Sigma-Aldrich, cat. N0636), 1X B-27 supplement (Thermo Fisher Scientific, cat. 17504044), 1X N-2 supplement (Thermo Fisher Scientific, cat. 17502048), and 10 microM Y-27632 dihydrochloride (Tocris Bioscience, cat. 1254). The 876862-298-R-J1-PDC was cultured in 6E media, which includes all 6B/Colon 1A media components plus 50% L-WRN conditioned media (ATCC, cat. CRL-3276), 50 ng/mL recombinant human EGF recombinant protein (hEGF; Thermo Fisher Scientific, cat. PHG0311), 10 ng/mL recombinant human fibroblast growth factor 10 (hGFG-10; PeproTech, cat. 100-26), 1 ng/mL recombinant human fibroblast growth factor 2 (hFGF-2; PeproTech, cat. 100-18B), and 1 µM prostaglandin E2 (PGE2; Tocris, cat. 2296). The 227483-062-R1-J1-PDC line was cultured in Panc media, containing all 6E components except hFGF-2, with the addition of 500 nM SB-431542 (Selleckchem, cat. S1067) and 10 nM gastrin (Tocris, cat. 3006). […]
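Note: spheroids exposed to agents for seven days before readout.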

## CCCS(=O)(=O)Nc1ccc(F)c(C(=O)c2c[nH]c3ncc(-c4ccc(Cl)cc4)cc23)c1F + CN1CCN(c2cc(C(=O)Nc3cc4cc(-c5cnn(C)c5)ccc4cn3)ccn2)CC1
Second compound 0.0316 µM
  IC50: > 10 µM
Second compound 0.1 µM
  IC50: > 10 µM
Second compound 0.316 µM
  IC50: > 10 µM
Second compound 1 µM
  IC50: < 0.0316 µM
Second compound 3.16 µM
  IC50: < 0.0316 µM
Second compound 10 µM
  IC50: < 0.0316 µM
Second compound 0.0316 µM, first compound 0.0316 µM
  viability, T/C: 111%
Second compound 0.0316 µM, first compound 0.1 µM
  viability, T/C: 113%
Second compound 0.0316 µM, first compound 0.316 µM
  viability, T/C: 136%
Second compound 0.0316 µM, first compound 1 µM
  viability, T/C: 161%
Second compound 0.0316 µM, first compound 3.16 µM
  viability, T/C: 179%
Second compound 0.0316 µM, first compound 10 µM
  viability, T/C: 150%
Second compound 0.1 µM, first compound 0.0316 µM
  viability, T/C: 108%
Second compound 0.1 µM, first compound 0.1 µM
  viability, T/C: 124%
Second compound 0.1 µM, first compound 0.316 µM
  viability, T/C: 137%
Second compound 0.1 µM, first compound 1 µM
  viability, T/C: 134%
Second compound 0.1 µM, first compound 3.16 µM
  viability, T/C: 168%
Second compound 0.1 µM, first compound 10 µM
  viability, T/C: 138%
Second compound 0.316 µM, first compound 0.0316 µM
  viability, T/C: 95.9%
Second compound 0.316 µM, first compound 0.1 µM
  viability, T/C: 102%
Second compound 0.316 µM, first compound 0.316 µM
  viability, T/C: 98%
Second compound 0.316 µM, first compound 1 µM
  viability, T/C: 109%
Second compound 0.316 µM, first compound 3.16 µM
  viability, T/C: 133%
Second compound 0.316 µM, first compound 10 µM
  viability, T/C: 99.5%
Second compound 1 µM, first compound 0.0316 µM
  viability, T/C: 31.4%
Second compound 1 µM, first compound 0.1 µM
  viability, T/C: 30.9%
Second compound 1 µM, first compound 0.316 µM
  viability, T/C: 32%
Second compound 1 µM, first compound 1 µM
  viability, T/C: 27.8%
Second compound 1 µM, first compound 3.16 µM
  viability, T/C: 31.4%
Second compound 1 µM, first compound 10 µM
  viability, T/C: 23.5%
Second compound 3.16 µM, first compound 0.0316 µM
  viability, T/C: 8.19%
Second compound 3.16 µM, first compound 0.1 µM
  viability, T/C: 9.62%
Second compound 3.16 µM, first compound 0.316 µM
  viability, T/C: 11.2%
Second compound 3.16 µM, first compound 1 µM
  viability, T/C: 12.2%
Second compound 3.16 µM, first compound 3.16 µM
  viability, T/C: 16.5%
Second compound 3.16 µM, first compound 10 µM
  viability, T/C: 16.1%
Second compound 10 µM, first compound 0.0316 µM
  viability, T/C: 1.72%
Second compound 10 µM, first compound 0.1 µM
  viability, T/C: 2.24%
Second compound 10 µM, first compound 0.316 µM
  viability, T/C: 2.24%
Second compound 10 µM, first compound 1 µM
  viability, T/C: 2.75%
Second compound 10 µM, first compound 3.16 µM
  viability, T/C: 2.94%
Second compound 10 µM, first compound 10 µM
  viability, T/C: 0.92%
